Measurements reported in ChEMBL document CHEMBL1144253, “Pyrimidine containing RSV fusion inhibitors” (Bioorg Med Chem Lett, 2005).

Key:
Assay type in all cases: functional, cell-based
[1] = tested on: Vero; experiment: Inhibitory concentration against herpes simplex 1 strain Patton in vero cells; details: Chlorocebus sabaeus
[2] = tested on: HFF; experiment: Inhibitory concentration against human cytomegalovirus strain Ad169 in human foreskin fibroblasts
[3] = tested on: HFF; experiment: Inhibitory concentration against human respiratory syncytial virus strain A2 in human foreskin fibroblasts

Compound	IC50 [1]	IC50 [2]	IC50 [3]
NC(=O)CN(CC(N)=O)S(=O)(=O)c1cccc(Nc2nc(Cl)cc(Nc3ccc(-c4ccc(Nc5cc(Cl)nc(Cl)n5)cc4S(=O)(=O)O)c(S(=O)(=O)O)c3)n2)c1	47.2 µM	24.9 µM	16.7 µM
NC(=O)CCCN(CCCC(N)=O)S(=O)(=O)c1cccc(Nc2nc(Nc3cccc(S(=O)(=O)N(CCCC(N)=O)CCCC(N)=O)c3)nc(Nc3ccc(-c4ccc(Nc5nc(Nc6cccc(S(=O)(=O)N(CCCC(N)=O)CCCC(N)=O)c6)nc(Nc6cccc(S(=O)(=O)N(CCCC(N)=O)CCCC(N)=O)c6)n5)cc4S(=O)(=O)O)c(S(=O)(=O)O)c3)n2)c1			0.1 µM
O=S(=O)(O)c1cc(Nc2nc(Nc3cccc(S(=O)(=O)N(CCO)CCO)c3)nc(Nc3cccc(S(=O)(=O)N(CCO)CCO)c3)n2)ccc1-c1ccc(Nc2nc(Nc3cccc(S(=O)(=O)N(CCO)CCO)c3)nc(Nc3cccc(S(=O)(=O)N(CCO)CCO)c3)n2)cc1S(=O)(=O)O	14.7 µM	2.3 µM	0.09 µM
NC(=O)CN(CC(N)=O)S(=O)(=O)c1cccc(Nc2cc(Nc3ccc(-c4ccc(Nc5cc(Nc6cccc(S(=O)(=O)N(CC(N)=O)CC(N)=O)c6)nc(Nc6cccc(S(=O)(=O)N(CC(N)=O)CC(N)=O)c6)n5)cc4S(=O)(=O)O)c(S(=O)(=O)O)c3)nc(Cl)n2)c1	18.9 µM	7 µM	1.8 µM
NC(=O)CCN(CCC(N)=O)S(=O)(=O)c1cccc(Nc2nc(Cl)nc(Nc3ccc(-c4ccc(Nc5nc(Nc6cccc(S(=O)(=O)N(CCC(N)=O)CCC(N)=O)c6)nc(Nc6cccc(S(=O)(=O)N(CCC(N)=O)CCC(N)=O)c6)n5)cc4S(=O)(=O)O)c(S(=O)(=O)O)c3)n2)c1		16.8 µM	0.25 µM
NC(=O)CCN(CCC(N)=O)S(=O)(=O)c1cccc(Nc2nc(Nc3cccc(S(=O)(=O)N(CCC(N)=O)CCC(N)=O)c3)nc(Nc3ccc(-c4ccc(Nc5nc(Nc6cccc(S(=O)(=O)N(CCC(N)=O)CCC(N)=O)c6)nc(Nc6cccc(S(=O)(=O)N(CCC(N)=O)CCC(N)=O)c6)n5)cc4S(=O)(=O)O)c(S(=O)(=O)O)c3)n2)c1			0.08 µM
NC(=O)CCN(CCC(N)=O)S(=O)(=O)c1cccc(Nc2nc(Nc3cccc(S(=O)(=O)N(CCC(N)=O)CCC(N)=O)c3)nc(Nc3ccc(/C=C/c4ccc(Nc5nc(Nc6cccc(S(=O)(=O)N(CCC(N)=O)CCC(N)=O)c6)nc(Nc6cccc(S(=O)(=O)N(CCC(N)=O)CCC(N)=O)c6)n5)cc4S(=O)(=O)O)c(S(=O)(=O)O)c3)n2)c1			0.15 µM
NC(=O)CN(CC(N)=O)S(=O)(=O)c1cccc(Nc2cc(Nc3ccc(-c4ccc(Nc5nc(Nc6cccc(S(=O)(=O)N(CC(N)=O)CC(N)=O)c6)ncc5Cl)cc4S(=O)(=O)O)c(S(=O)(=O)O)c3)nc(Cl)n2)c1	25.4 µM	13.8 µM	3.5 µM
O=S(=O)(O)c1cc(Nc2cc(Nc3cccc(S(=O)(=O)N(CCO)CCO)c3)nc(Nc3cccc(S(=O)(=O)N(CCO)CCO)c3)n2)ccc1-c1ccc(Nc2cc(Nc3cccc(S(=O)(=O)N(CCO)CCO)c3)nc(Nc3cccc(S(=O)(=O)N(CCO)CCO)c3)n2)cc1S(=O)(=O)O	16.8 µM	4.4 µM	0.82 µM
NC(=O)CN(CC(N)=O)S(=O)(=O)c1cccc(Nc2nc(Nc3cccc(S(=O)(=O)N(CC(N)=O)CC(N)=O)c3)nc(Nc3ccc(-c4ccc(Nc5nc(Nc6cccc(S(=O)(=O)N(CC(N)=O)CC(N)=O)c6)nc(Nc6cccc(S(=O)(=O)N(CC(N)=O)CC(N)=O)c6)n5)cc4S(=O)(=O)O)c(S(=O)(=O)O)c3)n2)c1 [RF-1461]	7.72 µM	2.55 µM	0.05 µM
